# Patent US9695155B2, “Herbicidal substituted pyrimidinyloxy benzene compounds” (E. I. DU PONT DE NEMOURS AND COMPANY, priority 2013, dated 2017)
# Tests used:
# Assay in all cases: Test E postemergence
# [1] = tested on: waterhemp_RES2 (ALS & HPPD resistant common waterhemp); assay type: in vivo, Amaranthus rudis; conditions: Amaranthus tuberculatus, post-emergence, read-out: Plant response rating, Waterhemp_RES2
# Description: (§1) Seeds of plant species selected from corn (Zea mays), soybean (Glycine max), velvetleaf (Abutilon theophrasti), lambsquarters (Chenopodium album), wild poinsettia (Euphorbia heterophylla), palmer pigweed (Amaranthus palmeri), waterhemp (common waterhemp, Amaranthus rudis), surinam grass (Brachiaria decumbens), large (Lg) crabgrass (Digitaria sanguinalis), Brazilian crabgrass (Digitaria horizontalis), fall panicum (Panicum dichotomiflorum), giant foxtail (Setaria faberii), green foxtail (Setaria viridis), goosegrass (Eleusine indica), johnsongrass (Sorghum halepense), ragweed (common ragweed, Ambrosia elatior), barnyardgrass (Echinochloa crus-galli), sandbur (southern sandbur, Cenchrus echinatus), arrowleaf sida (Sida rhombifolia), Italian ryegrass (Lolium multiflorum), dayflower (Virginia (VA) dayflower, Commelina virginica), field bindweed (Convolvulus arvensis), morningglory (Ipomoea coccinea), nightshade (eastern black nightshade, Solanum ptycanthum), kochia (Kochia scoparia), yellow nutsedge (Cyperus esculentus), cocklebur (common cocklebur, Xanthium strumarium), smartweed (ladysthumb smartweed, and hairy beggarticks (Bidens pilosa), were planted into a silt loam soil and treated preemergence with test chemicals formulated in a non-phytotoxic solvent mixture which included a surfactant.
# (§2) At the same time, plants from these crop and weed species and also horseweed (Canada horseweed, Conyza canadensis), waterhemp_RES1, (ALS & Triazine resistant common waterhemp, Amaranthus rudis), and waterhemp_RES2, (ALS & HPPD resistant common waterhemp, Amaranthus rudis) were planted in pots containing Redi-Earth® planting medium (Scotts Company, 14111 Scottslawn Road, Marysville, Ohio 43041) comprising spaghnum peat moss, vermiculite, wetting agent and starter nutrients were treated with postemergence applications of test chemicals formulated in the same manner. Plants ranged in height from 2 to 18 cm for postemergence treatments (1- to 4-leaf stage). Treated plants and controls were maintained in a greenhouse for 14 to 21 days, after which time all species were compared to controls and visually evaluated. Plant response ratings, summarized in Table E, are based on a scale of 0 to 100 where 0 is no effect and 100 is complete control. A dash (-) response means no test result.
# [2] = tested on: waterhemp; assay type: in vivo, Amaranthus rudis; conditions: Amaranthus tuberculatus, post-emergence, read-out: Plant response rating, Waterhemp
# Description: as §1, §2
# [3] = tested on: fall panicum; assay type: in vivo, Panicum dichotomiflorum; conditions: Panicum dichotomiflorum, post-emergence, read-out: Plant response rating, Panicum, Fall
# Description: as §1, §2
# [4] = tested on: sandbur; assay type: in vivo, Cenchrus echinatus; conditions: Cenchrus echinatus, post-emergence, read-out: Plant response rating, Sandbur
# Description: as §1, §2
# [5] = tested on: arrowleaf sida; assay type: in vivo, Sida rhombifolia; conditions: Sida rhombifolia, post-emergence, read-out: Plant response rating, Arrowleaf Sida
# Description: as §1, §2
# [6] = Postemergence, 31 g ai/ha, scale 0 to 100
# [7] = Postemergence, 62 g ai/ha, scale 0 to 100
# [8] = Postemergence, 125 g ai/ha, scale 0 to 100
# [9] = Postemergence, 250 g ai/ha, scale 0 to 100
# [10] = postemergence, 16 g ai/ha, scale 0 to 100, 0 no effect, 100 complete control
smiles,measurement,setting,value
"Clc1cnn(-c2ccccc2Oc2ncc(Br)cn2)c1 [Compound 5, 5-bromo-2-[2-(4-chloro-1H-pyrazol-1-yl)phenoxy]pyrimidine]",pest or weed control at 31 g/ha,[1]; [6],70%
same,pest or weed control at 62 g/ha,[1]; [7],80%
same,pest or weed control at 125 g/ha,[1]; [8],90%
same,pest or weed control at 250 g/ha,[1]; [9],95%
same,pest or weed control at 16 g/ha,[1]; [10],60%
same,pest or weed control at 31 g/ha,[2]; [6],80%
same,pest or weed control at 62 g/ha,[2]; [7],90%
same,pest or weed control at 125 g/ha,[2]; [8],95%
same,pest or weed control at 250 g/ha,[2]; [9],98%
same,pest or weed control at 16 g/ha,[2]; [10],70%
same,pest or weed control at 62 g/ha,[3]; [7],0%
same,pest or weed control at 125 g/ha,[3]; [8],0%
same,pest or weed control at 250 g/ha,[3]; [9],0%
same,pest or weed control at 16 g/ha,[3]; [10],0%
same,pest or weed control at 31 g/ha,[4]; [6],0%
same,pest or weed control at 62 g/ha,[4]; [7],0%
same,pest or weed control at 125 g/ha,[4]; [8],10%
same,pest or weed control at 250 g/ha,[4]; [9],20%
same,pest or weed control at 16 g/ha,[4]; [10],0%
same,pest or weed control at 31 g/ha,[5]; [6],60%
same,pest or weed control at 62 g/ha,[5]; [7],70%
same,pest or weed control at 125 g/ha,[5]; [8],80%
same,pest or weed control at 250 g/ha,[5]; [9],85%
same,pest or weed control at 16 g/ha,[5]; [10],60%
